In patent publication US20210077370A1, “Use of compositions comprising dihydroxyacetone for the protection of skin or hair against infrared irradiation” (Merck Patent GmbH, priority 2019, published 2021):

How the values were obtained:
tropoelastin = assay: Tropoelastin immunostaining on human skin explants after IR-A irradiation; type: cell-based; settings: papillary dermis
Protocol: (§1) The product tested is a solution of 2% DHA in water. This was done to avoid formulation effects of auxiliary ingredients.
(§2) Human skin explants were prepared on an abdominoplasty coming from a person (Fitzpatrick skin phototype II-Ill). The explants were kept in survival in BEM culture medium (BIO-EC's Explants Medium) at 37° C. in a humid, 5%-CO2 atmosphere.
(§3) On day 0 (D0), day 3 (D3) and day 4 (D4; 3 hours before IR irradiation), day 5 (D5) and day 6 (D6), the product was applied topically followed by 10 minutes of drying. […] The culture medium was half renewed (1 ml/well) on day 3 and day 5. Irradiation of the explants were done using an infrared lamp (Dr FISCHER 1000 W, 235V, 2500K, 760-3000 nm), for 5040 s (720 J/cm^2). Water filter and IR760 filter were also used to have the following IR range of 700 nm to 1150 nm. The unirradiated batches were kept in HBSS (Hank's Balanced Saline Solution) in the dark. At the end of the irradiation, all the explants were put back in 2 ml of fresh BEM culture medium.
(§4) The explants temperature was measured before and after IR-A irradiation. To avoid temperature-driven side-effects, the explants temperature was maintained at 37° C. (max. 39° C.) by specially adapted refreshing system.
The nuclei were counterstained by propidium iodide.
The immunostaining was assessed by microscopical observation.

MMP1 = MMP1 immunostaining on human skin explants after IR-A irradiation; type: cell-based
Protocol: as §1, §2, §3, §4
The immunostaining was performed using an automated slide processing system (Autostainer, Dako) and assessed by microscopical observation.

## O=C(CO)CO [DHA, 1,3-dihydroxy-2-propanone]
tropoelastin; day 7
  protection of the explants after irradiation to IR-A (tropoelastin): excellent protection
tropoelastin; day 7, statistically not different (p>0.1)
  Tropoelastin levels after IR-A irradiation and DHA treatment versus blank untreated explant: comparable to those of blank untreated explant
MMP1; epidermis, IR-A irradiated, day 5, p<0.01
  MMP-1 decrease versus irradiated blank, epidermis: 65%
MMP1; living epidermis, IR-A irradiated explant + product applied topically, day 5
  MMP1 in the epidermis (% surface): 8.4 % surface
